The source of these data is patent US20050080247A1, “Leinamycin biosynthesis gene cluster and its components and their uses” (priority 2001, published 2005).

Like-named read-outs stand apart in the source and are kept apart here.

One data set has as its system S. atroolivaceus. The experiment in a line: Antibiotic sensitivity (growth inhibition) of S. atroolivaceus. Conditions: for complete inhibition of growth: concentration giving complete inhibition of growth of S. atroolivaceus; for sensitivity of S. atroolivaceus: result in words. It is filed as cell-based, Streptomyces atroolivaceus. As for the experimental part: S. atroolivaceus grows very well at 30° C.; it doesn't grow at temperature beyond 35° C. […] Thus, E. coli-Streptornyces shuttle vectors pOJ260 (suicide vector, Am^R) and pKC1139 (self-replicating vector, Am^R) were chosen to make the gene-disruption constructs pYC12 and pYC20, respectively. The concentration of antibiotic (Am) for selection of transformants/exconjugates is 50 μg/ml.

For data set [1] the following is noted: cited from earlier work; for t1/2: aqueous condition.
Data set [2] has as its system murine tumor models (HeLa S3, sarcoma180, B-16, Colon 26, leukemia P388). Conditions: cited from earlier work.
The test system of another data set is fungi. Particulars: cited from earlier work.
In a further data set the test system is DNA. Conditions: in the presence of thiol agents as cofactors; cited from earlier work.
Data set [3] has as its system Gram-positive and Gram-negative bacteria. Conditions: cited from earlier work.

`C=C(NC(=O)C(=C)NC(=O)c1csc(C2=N[C@@H]3c4csc(n4)[C@H]4NC(=O)c5csc(n5)[C@H]([C@](C)(O)[C@@H](C)O)NC(=O)[C@H]5CSC(=N5)/C(=C/C)NC(=O)[C@H]([C@@H](C)O)NC(=O)c5csc(n5)[C@]3(CC2)NC(=O)[C@H](C)NC(=O)C(=C)NC(=O)[C@H](C)NC(=O)[C@H]([C@@H](C)CC)N[C@@H]2C=Cc3c([C@H](C)O)cc(nc3[C@H]2O)C(=O)O[C@@H]4C)n1)C(N)=O` [thiostrepton]: in the data set with S. atroolivaceus, the “complete inhibition of growth” value was 3 µg/mL and the “sensitivity of S. atroolivaceus” value was “sensitive”.

For the compound `CN[C@@H]1[C@@H](O[C@H]2O[C@H](CO)[C@@H](N)[C@H](O)[C@H]2O)OC2C[C@@H](N)[C@@H](O[C@H]3[C@H](O)[C@@H](O)[C@H](N)C[C@@H]3N)OC2[C@@H]1O` (stereo partly shown) [apramycin], in the data set on S. atroolivaceus, the “complete inhibition of growth” value amounted to 10 µg/mL and the “sensitivity of S. atroolivaceus” value is “sensitive”.

Take `C/C1=C\[C@@H](O)C(=O)/C=C/C=C\c2csc(n2)[C@@H](C)NC(=O)C[C@@]2(CC1)[S+]([O-])SC(=O)[C@]2(C)O` (stereo partly shown) [Lnm, Leinamycin]: the t1/2 in data set [1] (pH 6) was above 20 h; in data set [1] (pH 7), 8 h; in data set [1] (pH 8), below 1 h. In addition, the “t1/2 in the presence of a thiol” value in data set [1] (in the presence of a thiol, compared with aqueous condition alone) is “even shorter t1/2”. The “activity against drug-resistant tumors” value in data set [2] (murine models inoculated with tumors resistant to cisplatin, doxorubicin, mitomycin or cyclophosphamide) is recorded as “active”. In addition, the antitumor activity entry in data set [2] (murine tumor models in vivo, including HeLa S3, sarcoma180, B-16, Colon 26, leukemia P388) was “potent antitumor activity”. Moreover, the antimicrobial activity result with fungi was “not against fungi”; in data set [3], “broad spectrum of antimicrobial activity”. For the same compound, the DNA cleavage result with DNA is on record as “single-strand scission of DNA”.
